Tested on: soybeans
Assay: Field screening for metribuzin tolerance in soybeans (injury rating, 1-9 scale)
Type: in vivo, Glycine max
Conditions: soybean lines containing a heterozygous (CT) allele of NGMAX006079502
Procedure: A rating scale that evaluates the degree of metribuzin sensitivity can also be employed to identify “metribuzin sensitive” and “metribuzin tolerant” plants. An exemplary and non-limiting scale for evaluating the Metribuzin sensitivity phenotype is as follows, where a low number corresponds to a “metribuzin tolerance” phenotype and the a high number correlates to a “metribuzin sensitivity” phenotype: Field screening for metribuzin tolerance in soybeans was performed at the Monsanto Company Soybean Research Station near Mount Olive, N.C. in 2010 and 2011. Metribuzin application rate was 0.5 lbs/acre metribuzin (Sencor®, Bayer Crop Science, Research Triangle Park, N.C., USA) one day prior to planting. Rows were planted as single 6′ row plots with 9 seed per foot. Multiple repetitions were grown per row. Within 24 hours after planting, the trial was irrigated with 0.5″ of water to help incorporate and activate the herbicide. Injury ratings were taken fourteen to twenty one (14-21) days after planting using a 1-9 scale (for example, 1=no damage, 9=completely killed). After identifying the target region through the mapping population described in Example 2, a molecular marker was identified. An association study was done using a soybean molecular marker database. […]

## CSc1nnc(C(C)(C)C)c(=O)n1N [Metribuzin, 4-Amino-6-(1,1-dimethylethyl)-3-(methylthio)-1,2,4-triazin-5(4H)-one]
  metribuzin phenotype in the field: mixed phenotype of both tolerance and sensitivity

— US10544468B2, “Molecular markers and phenotypic screening for metribuzin tolerance” (Monsanto Technology LLC, priority 2012, dated 2020)
